Source: patent publication US8124788B2, “Spirocyclic cyclohexane compounds with analgesic activity” (Gruenenthal GmbH, priority 2006, dated 2012)

What follows are molecules tested against T1, human μ opiate receptor (Homo sapiens, UniProt P35372) (assay: Affinity for the human μ opiate receptor ([3H]-naloxone displacement, CHO-K1 membrane preparation, SPA)). Details: compounds prepared via automated synthesis; single measurements at a test concentration of 1 μM.
T1 construct: purchased PerkinElmer Life Sciences, Zaventem, Belgium RB-HOM; host or cells: CHO-K1 cells (recombinant expression)
T1 sequence (P35372 whole entry): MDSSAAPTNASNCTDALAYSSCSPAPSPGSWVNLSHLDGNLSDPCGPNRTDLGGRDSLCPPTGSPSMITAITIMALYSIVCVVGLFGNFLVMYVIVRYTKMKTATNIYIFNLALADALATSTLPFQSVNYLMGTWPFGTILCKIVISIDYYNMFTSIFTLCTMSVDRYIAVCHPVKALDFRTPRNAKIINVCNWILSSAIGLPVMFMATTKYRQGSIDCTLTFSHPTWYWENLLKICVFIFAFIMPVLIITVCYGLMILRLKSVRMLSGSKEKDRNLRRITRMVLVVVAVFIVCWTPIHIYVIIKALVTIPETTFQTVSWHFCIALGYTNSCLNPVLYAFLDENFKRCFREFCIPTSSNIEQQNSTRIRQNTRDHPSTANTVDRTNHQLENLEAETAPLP
Format: binding
Method: The receptor affinity for the human μ opiate receptor is determined in a homogeneous set-up in microtitre plates. For this purpose, dilution series of the substances to be tested are incubated with a receptor membrane preparation (15-40 μg of protein/250 μl of incubation batch) of CHO-K1 cells which express the human μ opiate receptor (RB-HOM receptor membrane preparation from PerkinElmer Life Sciences, Zaventem, Belgium) in the presence of 1 nmol/l of the radioactive ligand [^3H]-naloxone (NET719, PerkinElmer Life Sciences, Zaventem, Belgium) and 1 mg of WGA-SPA-Beads (wheat germ agglutinin SPA beads from Amersham/Pharmacia, Freiburg, Germany) in a total volume of 250 μl for 90 minutes at room temperature. 50 mmol/l of Tris-HCl supplemented with 0.06% of bovine serum albumin are used as the incubation buffer. 100 μmol/l of naloxone are additionally added for determination of the non-specific binding. After the end of the ninety-minute incubation time, the microtitre plates are centrifuged for 20 minutes at 1,000 g and the radioactivity is measured in a β-counter (Microbeta-Trilum, PerkinElmer Wallac, Freiburg, Germany). The percentage displacement of the radioactive ligand from its binding to the human μ opiate receptor is determined at a concentration of the test substances of 1 μmol/l and stated as the percentage inhibition of the specific binding. Starting from the percentage displacement by various concentrations of the test substances, IC50 inhibitory concentrations which cause a 50 percent displacement of the radioactive ligand are calculated. By conversion by means of the Cheng-Prusoff relationship, Ki values for the test substances are obtained.
For `CCC(=O)N1CCc2c([nH]c3ccccc23)C12CCC(C(c1cccc(F)c1)N(C)C)CC2` (stereo not drawn) [Compound 113, 2-propionyl-{1,1-[3-(dimethylamino-(3-fluorophenyl)methyl)-pentamethylene]-3,4-dihydro-1H-2,9-diazafluorene}], the “μ opioid receptor [1 μmol], % inhibition” value was 13%.
In the case of `CN(C)C(c1cccc(F)c1)C1CCC2(CC1)c1[nH]c3ccccc3c1CCN2C(=O)Cc1ccc(F)cc1` (stereo not drawn) [Compound 116, 2-[(4-fluorophenyl)acetyl]-{1,1-[3-(dimethylamino-(3-fluorophenyl)methyl)-pentamethylene]-3,4-dihydro-1H-2,9-diazafluorene}], the “μ opioid receptor [1 μmol], % inhibition” value is reported as 20%.
With `CCCCC(CC)C(=O)N1CCc2c([nH]c3ccccc23)C12CCC(C(c1ccc(Cl)cc1)N(C)C)CC2` (stereo not drawn) [Compound 118, 2-(2-ethylhexanoyl)-{1,1-[3-(dimethylamino-(4-chlorophenyl)methyl)-pentamethylene]-3,4-dihydro-1H-2,9-diazafluorene}] the “μ opioid receptor [1 μmol], % inhibition” value was 35%.
For `CC(C)C(=O)N1CCc2c([nH]c3ccccc23)C12CCC(C(c1ccc(Cl)cc1)N(C)C)CC2` (stereo not drawn) [Compound 119, 2-isobutyryl-{1,1-[3-(dimethylamino-(4-chlorophenyl)methyl)-pentamethylene]-3,4-dihydro-1H-2,9-diazafluorene}], the “μ opioid receptor [1 μmol], % inhibition” value was 40%.
With `CCC(=O)N1CCc2c([nH]c3ccccc23)C12CCC(C(c1ccc(Cl)cc1)N(C)C)CC2` (stereo not drawn) [Compound 120, 2-propionyl-{1,1-[3-(dimethylamino-(4-chlorophenyl)methyl)-pentamethylene]-3,4-dihydro-1H-2,9-diazafluorene}] the “μ opioid receptor [1 μmol], % inhibition” value was 29%.
`CN(C)C(c1ccc(Cl)cc1)C1CCC2(CC1)c1[nH]c3ccccc3c1CCN2C(=O)Cc1ccc(F)cc1` (stereo not drawn) [Compound 123, 2-[(4-fluorophenyl)acetyl]-{1,1-[3-(dimethylamino-(4-chlorophenyl)-methyl)-pentamethylene]-3,4-dihydro-1H-2,9-diazafluorene}] was tested, and the “μ opioid receptor [1 μmol], % inhibition” value was 20%.
With `CN(C)C(c1ccccc1)C1CCC2(CC1)c1[nH]c3ccccc3c1CCN2C(=O)C1CCCC1` (stereo not drawn) [Compound 125, 2-cyclopentylcarbonyl-{1,1-[3-(dimethylamino-phenylmethyl)-pentamethylene]-3,4-dihydro-1H-2,9-diazafluorene}] the “μ opioid receptor [1 μmol], % inhibition” value was 29%.
In the case of `COc1cccc(CC(=O)N2CCc3c([nH]c4ccccc34)C23CCC(C(c2cccc(F)c2)N(C)C)CC3)c1` (stereo not drawn) [Compound 126, 2-[(3-methoxyphenyl)acetyl]-{1,1-[3-(dimethylamino-(3-fluorophenyl)methyl)-pentamethylene]-3,4-dihydro-1H-2,9-diazafluorene}], the “μ opioid receptor [1 μmol], % inhibition” value is reported as 50%.
With `CC(Oc1ccccc1)C(=O)N1CCc2c([nH]c3ccccc23)C12CCC(C(c1cccc(F)c1)N(C)C)CC2` (stereo not drawn) [Compound 127, 2-(2-phenoxypropanoyl)-{1,1-[3-(dimethylamino-(3-fluorophenyl)methyl)-pentamethylene]-3,4-dihydro-1H-2,9-diazafluorene}] the “μ opioid receptor [1 μmol], % inhibition” value was 55%.
With `Cc1ccc2sc(C(=O)N3CCc4c([nH]c5ccccc45)C34CCC(C(c3cccc(F)c3)N(C)C)CC4)cc2c1` (stereo not drawn) [Compound 128, 2-[5-methylbenzothien-2-ylcarbonyl]-{1,1-[3-(dimethylamino-(3-fluorophenyl)methyl)-pentamethylene]-3,4-dihydro-1H-2,9-diazafluorene}] the “μ opioid receptor [1 μmol], % inhibition” value was 16%.
In the case of `CC(C)CC(=O)N1CCc2c([nH]c3ccccc23)C12CCC(C(c1cccc(F)c1)N(C)C)CC2` (stereo not drawn) [Compound 129, 1-{1,1-[3-(dimethylamino-(3-fluorophenyl)methyl) -pentamethylene]-3,4-dihydro-1H-2,9-diazafluoren-2-yl}-3-methylbutan-1-one], the “μ opioid receptor [1 μmol], % inhibition” value is reported as 74%.
`CC(CC(=O)N1CCc2c([nH]c3ccccc23)C12CCC(C(c1cccc(F)c1)N(C)C)CC2)c1ccccc1` (stereo not drawn) [Compound 130, 1-{1,1-[3-(dimethylamino-(3-fluorophenyl)methyl) -pentamethylene]-3,4-dihydro-1H-2,9-diazafluoren-2-yl}-3-phenylbutan-1-one] was tested, and the “μ opioid receptor [1 μmol], % inhibition” value was 49%.
With `CN(C)C(c1ccc(Cl)cc1)C1CCC2(CC1)c1[nH]c3ccccc3c1CCN2C(=O)Cc1cccc(Br)c1` (stereo not drawn) [Compound 132, 2-[(3-bromophenyl)acetyl]-{1,1-[3-(dimethylamino-(4-chlorophenyl)-methyl)-pentamethylene]-3,4-dihydro-1H-2,9-diazafluorene}] the “μ opioid receptor [1 μmol], % inhibition” value was 65%.
With `CC(Oc1ccccc1)C(=O)N1CCc2c([nH]c3ccccc23)C12CCC(C(c1ccc(Cl)cc1)N(C)C)CC2` (stereo not drawn) [Compound 133, 2-(2-phenoxypropanoyl)-{1,1-[3-(dimethylamino-(4-chlorophenyl)methyl)-pentamethylene]-3,4-dihydro-1H-2,9-diazafluorene}] the “μ opioid receptor [1 μmol], % inhibition” value was 71%.
With `CC(C)CC(=O)N1CCc2c([nH]c3ccccc23)C12CCC(C(c1ccc(Cl)cc1)N(C)C)CC2` (stereo not drawn) [Compound 134, 1-{1,1-[3-(dimethylamino-(4-chlorophenyl)methyl) -pentamethylene]-3,4-dihydro-1H-2,9-diazafluoren-2-yl}-3-methylbutan-1-one] the “μ opioid receptor [1 μmol], % inhibition” value was 47%.
With `COc1cccc(CC(=O)N2CCc3c([nH]c4ccccc34)C23CCC(C(c2ccccc2)N(C)C)CC3)c1` (stereo not drawn) [Compound 136, 2-[(3-methoxyphenyl)acetyl]-{1,1-[3-(dimethylamino-phenylmethyl)-pentamethylene]-3,4-dihydro-1H-2,9-diazafluorene}] the “μ opioid receptor [1 μmol], % inhibition” value was 75%.
`CC(Oc1ccccc1)C(=O)N1CCc2c([nH]c3ccccc23)C12CCC(C(c1ccccc1)N(C)C)CC2` (stereo not drawn) [Compound 137, 2-(2-phenoxypropanoyl)-{1,1-[3-(dimethylamino-phenylmethyl)-pentamethylene]-3,4-dihydro-1H-2,9-diazafluorene}] was tested, and the “μ opioid receptor [1 μmol], % inhibition” value was 68%.
`CC(C)CC(=O)N1CCc2c([nH]c3ccccc23)C12CCC(C(c1ccccc1)N(C)C)CC2` (stereo not drawn) [Compound 138, 1-{1,1-[3-(dimethylamino-phenylmethyl)-pentamethylene]-3,4-dihydro-1H-2,9-diazafluoren-2-yl}-3-methylbutan-1-one] was tested, and the “μ opioid receptor [1 μmol], % inhibition” value was 58%.
`CCC(CC)C(=O)N1CCc2c([nH]c3ccccc23)C12CCC(C(c1ccc(F)cc1)N(C)C)CC2` (stereo not drawn) [Compound 139, 1-{1,1-[3-(dimethylamino-(4-fluorophenyl)methyl) -pentamethylene]-3,4-dihydro-1H-2,9-diazafluoren-2-yl}-2-ethylbutan-1-one] was tested, and the “μ opioid receptor [1 μmol], % inhibition” value was 25%.
`COc1cccc(CC(=O)N2CCc3c([nH]c4ccccc34)C23CCC(C(c2ccc(F)cc2)N(C)C)CC3)c1` (stereo not drawn) [Compound 140, 2-[(3-methoxyphenyl)acetyl]-{1,1-[3-(dimethylamino-(4-fluorophenyl)methyl)-pentamethylene]-3,4-dihydro-1H-2,9-diazafluorene}] was tested, and the “μ opioid receptor [1 μmol], % inhibition” value was 47%.
`CC(Oc1ccccc1)C(=O)N1CCc2c([nH]c3ccccc23)C12CCC(C(c1ccc(F)cc1)N(C)C)CC2` (stereo not drawn) [Compound 141, 2-(2-phenoxypropanoyl)-{1,1-[3-(dimethylamino-(4-fluorophenyl)methyl)-pentamethylene]-3,4-dihydro-1H-2,9-diazafluorene}] was tested, and the “μ opioid receptor [1 μmol], % inhibition” value was 47%.
In the case of `CC(CC(=O)N1CCc2c([nH]c3ccccc23)C12CCC(C(c1ccc(F)cc1)N(C)C)CC2)c1ccccc1` (stereo not drawn) [Compound 142, 1-{1,1-[3-(dimethylamino-(4-fluorophenyl)methyl) -pentamethylene]-3,4-dihydro-1H-2,9-diazafluoren-2-yl}-3-phenylbutan-1-one], the “μ opioid receptor [1 μmol], % inhibition” value is reported as 30%.

Same assay, conditions: compounds prepared via automated synthesis; single measurements at a test concentration of 1 μM; 1 µM
For `CN(C)C(c1ccc(Cl)cc1)C1CCC2(CC1)c1[nH]c3ccccc3c1CCN2C(=O)CCc1ccccc1` (stereo not drawn) [Compound 131, 2-(3-phenylpropanoyl)-{1,1-[3-(dimethylamino-(4-chlorophenyl)methyl)-pentamethylene]-3,4-dihydro-1H-2,9-diazafluorene}], the “μ opioid receptor [1 μmol], % inhibition” value was 51%.
In the case of `CN(C)C(c1ccc(Cl)cc1)C1CCC2(CC1)c1[nH]c3ccccc3c1CCN2C(=O)CCc1ccccc1` (stereo not drawn) [Compound 135, (3-phenylpropanoyl)-1-{1,1-[3-(dimethylamino-(4-chlorophenyl)methyl)-pentamethylene]-3,4-dihydro-1H-2,9-diazafluorene}], the “μ opioid receptor [1 μmol], % inhibition” value is reported as 38%.
